Patent US12123010B2, “Plants having increased tolerance to herbicides” (BASF SE, priority 2017, dated 2024)
Several values for one entry are separate records, joined by “and”; a condition that tells them apart may be missing. Identical values can stand only once.

What was measured:
[1] = molecular target: Wild Type PPO Enzyme (Amaranthus PPO2, SEQ ID NO: 1) (Amaranthus tuberculatus, UniProt Q0NZW9); experiment: PPO enzyme assay (recombinant), wild type; type: biochemical
[2] = tested on: Variant PPO Enzyme R128A, F420V (Amaranthus PPO2); experiment: biochemical; type: biochemical; conditions: variant R128A, F420V vs wild type
[3] = tested on: Variant PPO Enzyme R128A, F420M (Amaranthus PPO2); type: biochemical; conditions: variant R128A, F420M vs wild type
[4] = tested on: Variant PPO Enzyme L397Q, F420V (Amaranthus PPO2); type: biochemical; conditions: variant L397Q, F420V vs wild type
[5] = tested on: Variant PPO Enzyme L397Q (Amaranthus PPO2); type: biochemical; conditions: variant L397Q vs wild type
[6] = tested on: Variant PPO Enzyme F420M (Amaranthus PPO2); experiment: biochemical; type: biochemical; conditions: variant F420M vs wild type
[7] = tested on: Transgenic T2 Arabidopsis plants harboring PPO inhibitor tolerance trait; experiment: Lab based germination assay in 48-well plates (Table i); type: in vivo, Arabidopsis thaliana; conditions: construct AMATU_PPO2_TP_hemG (Escherichia coli); in comparison to wild type plants
[8] = tested on: Transgenic T2 Arabidopsis plants and ARBTH WT MC24 non-transgenic; experiment: Greenhouse post spray test, injury 14 DAT (Tables ii, iii); type: in vivo, Arabidopsis thaliana; conditions: Arabidopsis thaliana, 336 h;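 note: value is percent injury to the sprayed plants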
[9] = tested on: Transgenic T2 or T3 Soybean plants harbouring PPO inhibitor tolerance trait; experiment: Soybean Trial, post spray, injury score 14 DAT; type: in vivo
Method: Soybean cv Jake is transformed as previously described by Siminszky et al., Phytochem Rev. 5:445-458 (2006). After regeneration, transformants are transplanted to soil in small pots, placed in growth chambers (16 hr day/8 hr night; 25° C. day/23° C. night; 65% relative humidity; 130-150 microE m-2 s-1) and subsequently tested for the presence of the T-DNA via Taqman analysis. After a few weeks, healthy, transgenic positive, single copy events are transplanted to larger pots and allowed to grow in the growth chamber. An optimal shoot for cutting is about 3-4 inches tall, with at least two nodes present. Each cutting is taken from the original transformant (mother plant) and dipped into rooting hormone powder (indole-3-butyric acid, IBA). The cutting is then placed in oasis wedges inside a bio-dome. The mother plant is taken to maturity in the greenhouse and harvested for seed. Wild type cuttings are also taken simultaneously to serve as negative controls. The cuttings are kept in the bio-dome for 5-7 days and then transplanted to 3 inch pots and then acclimated in the growth chamber for two more days. Subsequently, the cuttings are transferred to the greenhouse, acclimated for approximately 4 days prior to spray. T0 or 2-week old T1 plants are sprayed with a treatment of the uracilpyridines as disclosed SUPRA and photosynthesis inhibitor diuron as negative control. Herbicide injury evaluations are taken at 2, 7, 14 and 21 days after treatment.
Transgenic T2 or T3 Soybean plants harbouring PPO inhibitor tolerance trait, were sprayed post with the indicated amount of uracilpyridine+1% (v/v) MSO. Evaluation performed 14 Days After Treatment (DAT) and shown as injury (0-9) relative to non-transgenic treated plants. Injury Scale: 0-9, 0=no imjury, 9=maximum injury. Note: segregating lines.

Chain of Wild Type PPO Enzyme (Amaranthus PPO2, SEQ ID NO: 1) (Q0NZW9 1-534): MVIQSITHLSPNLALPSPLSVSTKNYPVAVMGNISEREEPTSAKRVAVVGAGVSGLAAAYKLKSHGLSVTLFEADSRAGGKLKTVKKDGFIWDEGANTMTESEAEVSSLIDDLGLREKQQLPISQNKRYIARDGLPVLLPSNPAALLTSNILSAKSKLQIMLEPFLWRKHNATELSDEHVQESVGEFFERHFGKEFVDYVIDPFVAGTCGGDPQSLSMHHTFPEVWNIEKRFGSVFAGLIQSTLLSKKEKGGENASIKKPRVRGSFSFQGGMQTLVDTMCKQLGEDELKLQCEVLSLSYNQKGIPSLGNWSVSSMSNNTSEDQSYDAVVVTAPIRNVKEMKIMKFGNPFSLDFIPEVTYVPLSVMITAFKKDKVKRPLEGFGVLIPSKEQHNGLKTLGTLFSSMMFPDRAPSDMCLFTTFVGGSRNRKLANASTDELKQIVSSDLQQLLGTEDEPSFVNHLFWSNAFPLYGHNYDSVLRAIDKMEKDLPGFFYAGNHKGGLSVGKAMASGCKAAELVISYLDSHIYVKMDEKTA

CCOC(=O)COc1ncccc1Oc1nc(-n2c(=O)cc(C(F)(F)F)n(C)c2=O)c(F)cc1Cl [Uracilpyridine 2, ethyl 2-[[3-[[3-chloro-5-fluoro-6-[3-methyl-2,6-dioxo-4-(trifluoromethyl)pyrimidin-1-yl]-2-pyridyl]oxy]-2-pyridyl]oxy]acetate]
IC50 [1]: 0.187 nM | Tolerance Factor (R/S) [2]: 796 and 1105 | Tolerance Factor (R/S) [3]: 521 | Tolerance Factor (R/S) [4]: 13678 | Tolerance Factor (R/S) [5]: 7 | Tolerance Factor (R/S) [6]: 244 and 415 | Tolerance Factor [7]: 6400 | pest or weed control at 50 g/ha ([8]; Table ii, ALOMY_PPO2_R137L_F438V event F, 50 g ai/ha): 18% | pest or weed control at 100 g/ha ([8]; Table ii, ALOMY_PPO2_R137L_F438V event F, 100 g ai/ha): 18% | pest or weed control at 200 g/ha ([8]; Table ii, ALOMY_PPO2_R137L_F438V event F, 200 g ai/ha): 23% | pest or weed control at 50 g/ha ([8]; Table ii, ALOMY_PPO2_R137L_F438V event G, 50 g ai/ha): 0% | pest or weed control at 100 g/ha ([8]; Table ii, ALOMY_PPO2_R137L_F438V event G, 100 g ai/ha): 10% | pest or weed control at 200 g/ha ([8]; Table ii, ALOMY_PPO2_R137L_F438V event G, 200 g ai/ha): 20% | pest or weed control at 50 g/ha ([8]; Table ii, ALOMY_PPO2_TP_AMATU_PPO2_R128M_F420I event R, 50 g ai/ha): 45% | pest or weed control at 100 g/ha ([8]; Table ii, ALOMY_PPO2_TP_AMATU_PPO2_R128M_F420I event R, 100 g ai/ha): 45% | pest or weed control at 200 g/ha ([8]; Table ii, ALOMY_PPO2_TP_AMATU_PPO2_R128M_F420I event R, 200 g ai/ha): 75% | pest or weed control at 50 g/ha ([8]; Table ii, AMATU_PPO2_R128A_F420M event Q, 50 g ai/ha): 10% | pest or weed control at 100 g/ha ([8]; Table ii, AMATU_PPO2_R128A_F420M event Q, 100 g ai/ha): 15% | pest or weed control at 200 g/ha ([8]; Table ii, AMATU_PPO2_R128A_F420M event Q, 200 g ai/ha): 65% | pest or weed control at 50 g/ha ([8]; Table ii, AMATU_PPO2_R128M_F420I event K, 50 g ai/ha): 18% | pest or weed control at 100 g/ha ([8]; Table ii, AMATU_PPO2_R128M_F420I event K, 100 g ai/ha): 58% | pest or weed control at 200 g/ha ([8]; Table ii, AMATU_PPO2_R128M_F420I event K, 200 g ai/ha): 70% | pest or weed control at 100 g/ha ([8]; Table ii, AMATU_PPO2_TP_hemG event R, 100 g ai/ha): 40% | pest or weed control at 200 g/ha ([8]; Table ii, AMATU_PPO2_TP_hemG event R, 200 g ai/ha): 35% | pest or weed control at 1 g/ha ([8]; Table ii, AMATU_PPO2_WT event Q, 1 g ai/ha): 23% | pest or weed control at 5 g/ha ([8]; Table ii, AMATU_PPO2_WT event Q, 5 g ai/ha): 100% | pest or weed control at 10 g/ha ([8]; Table ii, AMATU_PPO2_WT event Q, 10 g ai/ha): 100% | pest or weed control at 30 g/ha ([8]; Table ii, AMATU_PPO2_WT event Q, 30 g ai/ha): 100% | pest or weed control at 1 g/ha ([8]; Table ii, ARBTH WT MC24 non-transgenic, 1 g ai/ha + 1% MSO): 100% | pest or weed control at 5 g/ha ([8]; Table ii, ARBTH WT MC24 non-transgenic, 5 g ai/ha + 1% MSO): 100% | pest or weed control at 10 g/ha ([8]; Table ii, ARBTH WT MC24 non-transgenic, 10 g ai/ha + 1% MSO): 100% | pest or weed control at 30 g/ha ([8]; Table ii, ARBTH WT MC24 non-transgenic, 30 g ai/ha + 1% MSO): 100% | pest or weed control at 50 g/ha ([8]; Table ii, ARBTH WT MC24 non-transgenic, 50 g ai/ha + 1% MSO): 100% | pest or weed control at 80 g/ha ([8]; Table ii, ARBTH WT MC24 non-transgenic, 80 g ai/ha + 1% MSO): 100% | pest or weed control at 100 g/ha ([8]; Table ii, ARBTH WT MC24 non-transgenic, 100 g ai/ha + 1% MSO): 100% | pest or weed control at 200 g/ha ([8]; Table ii, ARBTH WT MC24 non-transgenic, 200 g ai/ha + 1% MSO): 100% | pest or weed control at 30 g/ha ([8]; Table ii, ARBTH_PPO1_S305L_Y426M event O, 30 g ai/ha): 33% | pest or weed control at 50 g/ha ([8]; Table ii, ARBTH_PPO1_S305L_Y426M event O, 50 g ai/ha as printed (row position suggests 5)): 0% | pest or weed control at 80 g/ha ([8]; Table ii, ARBTH_PPO1_S305L_Y426M event O, 80 g ai/ha): 45% | pest or weed control at 100 g/ha ([8]; Table ii, ARBTH_PPO1_S305L_Y426M event O, 100 g ai/ha as printed (row position suggests 10)): 0% | pest or weed control at 1 g/ha ([8]; Table ii, ARBTH_PPO1_WT event Q, 1 g ai/ha): 15% | pest or weed control at 5 g/ha ([8]; Table ii, ARBTH_PPO1_WT event Q, 5 g ai/ha): 100% | pest or weed control at 10 g/ha ([8]; Table ii, ARBTH_PPO1_WT event Q, 10 g ai/ha): 100% | pest or weed control at 30 g/ha ([8]; Table ii, ARBTH_PPO1_WT event Q, 30 g ai/ha): 100% | pest or weed control at 50 g/ha ([8]; Table iii, ALOMY_PPO2_R137L_F438M (unnamed lines), 50 g ai/ha): 0% | pest or weed control at 100 g/ha ([8]; Table iii, ALOMY_PPO2_R137L_F438M (unnamed lines), 100 g ai/ha): 0% | pest or weed control at 50 g/ha ([8]; Table iii, ALOMY_PPO2_R137L_F438V (unnamed lines), 50 g ai/ha): 0% | pest or weed control at 100 g/ha ([8]; Table iii, ALOMY_PPO2_R137L_F438V (unnamed lines), 100 g ai/ha): 0% | pest or weed control at 50 g/ha ([8]; Table iii, AMATU_PPO2_L397E_F420M (unnamed lines), 50 g ai/ha): 0% | pest or weed control at 100 g/ha ([8]; Table iii, AMATU_PPO2_L397E_F420V (unnamed lines), 100 g ai/ha): 0% | pest or weed control at 100 g/ha ([8]; Table iii, AMATU_PPO2_L397Q_F420V (unnamed lines), 100 g ai/ha): 80% | pest or weed control at 50 g/ha ([8]; Table iii, ARBTH WT MC 24 (non-transgenic), 50 g ai/ha + 1% MSO): 100% | pest or weed control at 100 g/ha ([8]; Table iii, ARBTH WT MC 24 (non-transgenic), 100 g ai/ha + 1% MSO): 100% | injury (0-9) ([9]; L397E, F420M Event 2, 25 g/ha + 1% (v/v) MSO): 0 (No Injury) | injury (0-9) ([9]; L397E, F420M Event 2, 50 g/ha + 1% (v/v) MSO): 0 (No Injury) | injury (0-9) ([9]; L397E, F420M Event 2, 100 g/ha + 1% (v/v) MSO): 0 (No Injury) | injury (0-9) ([9]; L397E, F420V Event 1, 25 g/ha + 1% (v/v) MSO): 0 (No Injury) | injury (0-9) ([9]; L397E, F420V Event 1, 50 g/ha + 1% (v/v) MSO): 0 (No Injury) | injury (0-9) ([9]; L397E, F420V Event 1, 100 g/ha + 1% (v/v) MSO): 0 (No Injury) | injury (0-9) ([9]; L397Q, F420M Event 3, 25 g/ha + 1% (v/v) MSO): 0 (No Injury) and 3 | injury (0-9) ([9]; L397Q, F420M Event 3, 50 g/ha + 1% (v/v) MSO): 3 | injury (0-9) ([9]; L397Q, F420M Event 3, 100 g/ha + 1% (v/v) MSO): 3 and 2
